From the supplement of paper PMC10307832

Columns and labels:
Assay in all cases: relative viability (nuclei count vs DMSO), 5 days (fraction); higher = more cells survive
NCI-H1915 = tested on: NCI-H1915
Outline: (§1)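 Lung cancer cell lines in 1536-well plates were dosed by pin tool the day after seeding, either with one drug alone or with a fixed anchor-drug dose plus five library-drug doses (not always all listed) in √10 steps. After 5 days, cells were fixed and their nuclei stained in one step (final 0.05% Triton X-100, 1% formaldehyde, 1 ug/ml Hoechst), then counted on 4× images. Relative viability is the nuclei count in treated wells divided by that in vehicle wells. Values are medians of duplicate plates.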

NCI-H2347 = tested on: NCI-H2347
Outline: as §1

UMC-11 = tested on: UMC-11
Outline: as §1

HCC-44 = tested on: HCC-44
Outline: as §1

LC-2-ad = tested on: LC-2-ad
Outline: as §1

COR-L23 = tested on: COR-L23
Outline: as §1

NCI-H1651 = tested on: NCI-H1651
Outline: as §1

NCI-H2023 = tested on: NCI-H2023
Outline: as §1

LU99A = tested on: LU99A
Outline: as §1

PC-14 = tested on: PC-14
Outline: as §1

HOP-62 = tested on: HOP-62
Outline: as §1

SW 1573 = tested on: SW 1573
Outline: as §1

NCI-H838 = tested on: NCI-H838
Outline: as §1

NCI-H1993 = tested on: NCI-H1993
Outline: as §1

EPLC-272H = tested on: EPLC-272H
Outline: as §1

NCI-H2126 = tested on: NCI-H2126
Outline: as §1

ABC-1 = tested on: ABC-1
Outline: as §1

NCI-H1355 = tested on: NCI-H1355
Outline: as §1

NCI-H2085 = tested on: NCI-H2085
Outline: as §1

HARA = tested on: HARA
Outline: as §1

HCC-15 = tested on: HCC-15
Outline: as §1

NCI-H650 = tested on: NCI-H650
Outline: as §1

SMILES: Cc1sc2c(c1C)C(c1ccc(Cl)cc1)=N[C@@H](CC(=O)OC(C)(C)C)c1nnc(C)n1-2 [JQ1] + CS(=O)(=O)N1CCN(Cc2cc3nc(-c4cccc5[nH]ncc45)nc(N4CCOCC4)c3s2)CC1 [Pictilisib] (partner 1 µM)
- relative viability (NCI-H1915; first compound 0.04 µM): 0.89
- relative viability (NCI-H1915; first compound 0.1265 µM): 0.872
- relative viability (NCI-H1915; first compound 0.4 µM): 0.758
- relative viability (NCI-H1915; first compound 1.265 µM): 0.494
- relative viability (NCI-H1915; first compound 4 µM): 0.226
- relative viability (NCI-H2347; first compound 0.04 µM): 0.791
- relative viability (NCI-H2347; first compound 0.1265 µM): 0.529
- relative viability (NCI-H2347; first compound 0.4 µM): 0.542
- relative viability (NCI-H2347; first compound 1.265 µM): 0.334
- relative viability (NCI-H2347; first compound 4 µM): 0.372
- relative viability (UMC-11; first compound 0.04 µM): 0.724
- relative viability (UMC-11; first compound 0.1265 µM): 0.664
- relative viability (UMC-11; first compound 0.4 µM): 0.338
- relative viability (UMC-11; first compound 1.265 µM): 0.209
- relative viability (UMC-11; first compound 4 µM): 0.192
- relative viability (HCC-44; first compound 0.04 µM): 0.623
- relative viability (HCC-44; first compound 0.1265 µM): 0.498
- relative viability (HCC-44; first compound 0.4 µM): 0.532
- relative viability (HCC-44; first compound 1.265 µM): 0.294
- relative viability (HCC-44; first compound 4 µM): 0.213
- relative viability (LC-2-ad; first compound 0.04 µM): 0.386
- relative viability (LC-2-ad; first compound 0.1265 µM): 0.605
- relative viability (LC-2-ad; first compound 0.4 µM): 0.263
- relative viability (LC-2-ad; first compound 1.265 µM): 0.121
- relative viability (LC-2-ad; first compound 4 µM): 0.117
- relative viability (COR-L23; first compound 0.04 µM): 0.805
- relative viability (COR-L23; first compound 0.1265 µM): 0.692
- relative viability (COR-L23; first compound 0.4 µM): 0.524
- relative viability (COR-L23; first compound 1.265 µM): 0.3
- relative viability (COR-L23; first compound 4 µM): 0.202
- relative viability (NCI-H1651; first compound 0.04 µM): 0.476
- relative viability (NCI-H1651; first compound 0.1265 µM): 0.451
- relative viability (NCI-H1651; first compound 0.4 µM): 0.335
- relative viability (NCI-H1651; first compound 1.265 µM): 0.271
- relative viability (NCI-H1651; first compound 4 µM): 0.245
- relative viability (NCI-H2023; first compound 0.04 µM): 0.234
- relative viability (NCI-H2023; first compound 0.1265 µM): 0.268
- relative viability (NCI-H2023; first compound 0.4 µM): 0.196
- relative viability (NCI-H2023; first compound 1.265 µM): 0.161
- relative viability (NCI-H2023; first compound 4 µM): 0.156
- relative viability (LU99A; first compound 0.04 µM): 0.322
- relative viability (LU99A; first compound 0.1265 µM): 0.32
- relative viability (LU99A; first compound 0.4 µM): 0.398
- relative viability (LU99A; first compound 1.265 µM): 0.201
- relative viability (LU99A; first compound 4 µM): 0.203
- relative viability (PC-14; first compound 0.04 µM): 0.631
- relative viability (PC-14; first compound 0.1265 µM): 0.498
- relative viability (PC-14; first compound 0.4 µM): 0.445
- relative viability (PC-14; first compound 1.265 µM): 0.243
- relative viability (PC-14; first compound 4 µM): 0.122
- relative viability (HOP-62; first compound 0.04 µM): 0.815
- relative viability (HOP-62; first compound 0.1265 µM): 0.56
- relative viability (HOP-62; first compound 0.4 µM): 0.249
- relative viability (HOP-62; first compound 1.265 µM): 0.0959
- relative viability (HOP-62; first compound 4 µM): 0.101
- relative viability (SW 1573; first compound 0.04 µM): 0.486
- relative viability (SW 1573; first compound 0.1265 µM): 0.443
- relative viability (SW 1573; first compound 0.4 µM): 0.421
- relative viability (SW 1573; first compound 1.265 µM): 0.212
- relative viability (SW 1573; first compound 4 µM): 0.221
- relative viability (NCI-H838; first compound 0.04 µM): 0.397
- relative viability (NCI-H838; first compound 0.1265 µM): 0.3
- relative viability (NCI-H838; first compound 0.4 µM): 0.319
- relative viability (NCI-H838; first compound 1.265 µM): 0.208
- relative viability (NCI-H838; first compound 4 µM): 0.232
- relative viability (NCI-H1993; first compound 0.04 µM): 0.883
- relative viability (NCI-H1993; first compound 0.1265 µM): 0.788
- relative viability (NCI-H1993; first compound 0.4 µM): 0.888
- relative viability (NCI-H1993; first compound 1.265 µM): 0.635
- relative viability (NCI-H1993; first compound 4 µM): 0.846
- relative viability (EPLC-272H; first compound 0.04 µM): 0.298
- relative viability (EPLC-272H; first compound 0.1265 µM): 0.326
- relative viability (EPLC-272H; first compound 0.4 µM): 0.301
- relative viability (EPLC-272H; first compound 1.265 µM): 0.223
- relative viability (EPLC-272H; first compound 4 µM): 0.184
- relative viability (NCI-H2126; first compound 0.04 µM): 0.484
- relative viability (NCI-H2126; first compound 0.1265 µM): 0.473
- relative viability (NCI-H2126; first compound 0.4 µM): 0.435
- relative viability (NCI-H2126; first compound 1.265 µM): 0.37
- relative viability (NCI-H2126; first compound 4 µM): 0.349
- relative viability (ABC-1; first compound 0.04 µM): 0.699
- relative viability (ABC-1; first compound 0.1265 µM): 0.545
- relative viability (ABC-1; first compound 0.4 µM): 0.512
- relative viability (ABC-1; first compound 1.265 µM): 0.387
- relative viability (ABC-1; first compound 4 µM): 0.365
- relative viability (NCI-H1355; first compound 0.04 µM): 0.429
- relative viability (NCI-H1355; first compound 0.1265 µM): 0.426
- relative viability (NCI-H1355; first compound 0.4 µM): 0.456
- relative viability (NCI-H1355; first compound 1.265 µM): 0.334
- relative viability (NCI-H1355; first compound 4 µM): 0.281
- relative viability (NCI-H2085; first compound 0.04 µM): 0.462
- relative viability (NCI-H2085; first compound 0.1265 µM): 0.497
- relative viability (NCI-H2085; first compound 0.4 µM): 0.441
- relative viability (NCI-H2085; first compound 1.265 µM): 0.368
- relative viability (NCI-H2085; first compound 4 µM): 0.385
- relative viability (HARA; first compound 0.04 µM): 0.505
- relative viability (HARA; first compound 0.1265 µM): 0.224
- relative viability (HARA; first compound 0.4 µM): 0.379
- relative viability (HARA; first compound 1.265 µM): 0.177
- relative viability (HARA; first compound 4 µM): 0.0809
- relative viability (HCC-15; first compound 0.04 µM): 0.67
- relative viability (HCC-15; first compound 0.4 µM): 0.663
- relative viability (HCC-15; first compound 1.265 µM): 0.366
- relative viability (HCC-15; first compound 4 µM): 0.343
- relative viability (NCI-H650; first compound 0.04 µM): 0.746
- relative viability (NCI-H650; first compound 0.1265 µM): 0.654
- relative viability (NCI-H650; first compound 0.4 µM): 0.499
- relative viability (NCI-H650; first compound 1.265 µM): 0.283
- relative viability (NCI-H650; first compound 4 µM): 0.273
